Test results from patent publication US10583119B2, “Compounds, compositions and methods for making the same” (Signum Biosciences, Inc., priority 2008, dated 2020).
Where two headings read alike, the source gives them in different places.

Assays:
[1] = target: T1, protein phosphatase 2A specific methyltransferase (MTase) (Homo sapiens, UniProt Q9UIC8); test: PP2A methylation in 96-well plate format (methyltransferase activity); format: biochemical; conditions: purified PP2A, MTase and [3H]-SAM; read-out: MT (IC50)
T1 construct: His; made in house
T1 sequence (Q9UIC8 whole entry): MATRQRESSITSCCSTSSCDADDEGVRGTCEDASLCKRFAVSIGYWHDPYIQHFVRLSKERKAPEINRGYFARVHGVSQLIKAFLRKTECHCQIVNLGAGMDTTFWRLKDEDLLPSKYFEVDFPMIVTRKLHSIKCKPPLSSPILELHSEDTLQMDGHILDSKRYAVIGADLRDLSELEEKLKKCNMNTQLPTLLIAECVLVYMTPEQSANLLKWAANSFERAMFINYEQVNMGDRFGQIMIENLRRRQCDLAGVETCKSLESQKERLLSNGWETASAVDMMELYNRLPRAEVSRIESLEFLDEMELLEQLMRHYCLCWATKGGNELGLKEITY
Description: Purified PP2A, MTase and [^3H]-SAM, were incubated in reaction buffer at 37° C. At the end of the reaction, mixture was added onto the membranes of 96-well filter plate (Multiscreen™, Millipore). The membranes were then pre-wetted with 70% ethanol (50 μL/well) and then subsequently washed with water (2×200 μL/well). The reaction in each well was terminated and the proteins (5 μL-20 μL) were precipitated by adding 25% ice-cold TCA. The plate was kept on ice for 30 minutes to ensure completion of protein precipitation. Excess of the free SAM was then removed by washing with 5% cold TCA ([…]) and 70% cold ethanol (2×100 μL/well). Membranes were air-dried, radioactivity in each well was counted by TopCount^NXT scintillation counter (Packard) with 25 μL/well of Microsinct™ 20 (PerkinElmer).

PP2A [2] = target: T2, PP2A (Homo sapiens, UniProt P67775); test: Phosphatase activity of PP2A using pNPP as substrate; format: biochemical; conditions: un-methylated PP2A, non-protein substrate pNPP, absence of ME and MT
T2 construct: made in house
T2 sequence (P67775 whole entry): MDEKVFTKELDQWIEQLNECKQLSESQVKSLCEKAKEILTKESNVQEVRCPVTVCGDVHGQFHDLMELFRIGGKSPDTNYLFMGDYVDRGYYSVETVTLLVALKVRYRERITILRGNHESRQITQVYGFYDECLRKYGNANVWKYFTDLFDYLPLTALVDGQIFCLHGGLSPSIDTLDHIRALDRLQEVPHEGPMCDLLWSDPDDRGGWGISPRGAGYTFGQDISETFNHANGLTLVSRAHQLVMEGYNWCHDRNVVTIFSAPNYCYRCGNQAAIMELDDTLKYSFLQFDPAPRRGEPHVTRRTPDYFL
T2 sequence (P30153 whole entry partner): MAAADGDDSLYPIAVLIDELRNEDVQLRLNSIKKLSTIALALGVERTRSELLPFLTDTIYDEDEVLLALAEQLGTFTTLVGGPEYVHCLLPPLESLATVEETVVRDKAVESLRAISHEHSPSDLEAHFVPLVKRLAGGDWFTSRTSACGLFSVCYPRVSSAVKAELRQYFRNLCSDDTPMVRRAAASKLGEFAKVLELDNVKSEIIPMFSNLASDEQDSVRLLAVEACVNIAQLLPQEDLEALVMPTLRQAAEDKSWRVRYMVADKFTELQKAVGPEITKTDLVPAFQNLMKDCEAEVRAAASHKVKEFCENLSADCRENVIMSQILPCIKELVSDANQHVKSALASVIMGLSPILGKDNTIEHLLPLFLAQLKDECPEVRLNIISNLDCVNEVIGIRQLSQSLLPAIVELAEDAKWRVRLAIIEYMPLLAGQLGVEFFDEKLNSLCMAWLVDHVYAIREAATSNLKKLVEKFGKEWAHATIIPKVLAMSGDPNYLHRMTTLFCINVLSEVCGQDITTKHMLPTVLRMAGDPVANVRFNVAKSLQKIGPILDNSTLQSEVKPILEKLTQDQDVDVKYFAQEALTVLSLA
Description: PP2A (10-200 nM) and pNPP (5-10 mM, Sigma) were mixed into 96-well plate (Fisher Scientific Inc.) in 50 μL of the buffer required. Reactions were performed at room temperature, and fully stopped by adding equal volume of 0.1 M EDTA. Production of p-nitrophenol […] was quantified by absorbance of reaction mixtures at 405 nm using the VMax® microplate reader (Molecular Devices).

[3] = target: T3, protein phosphatase specific protein methylesterase (MEase) (Homo sapiens, UniProt Q9Y570); test: PP2A demethylation with [3H]-SAM and purified proteins (methylesterase activity); format: biochemical
T3 construct: made in house
T3 sequence (Q9Y570 1-386): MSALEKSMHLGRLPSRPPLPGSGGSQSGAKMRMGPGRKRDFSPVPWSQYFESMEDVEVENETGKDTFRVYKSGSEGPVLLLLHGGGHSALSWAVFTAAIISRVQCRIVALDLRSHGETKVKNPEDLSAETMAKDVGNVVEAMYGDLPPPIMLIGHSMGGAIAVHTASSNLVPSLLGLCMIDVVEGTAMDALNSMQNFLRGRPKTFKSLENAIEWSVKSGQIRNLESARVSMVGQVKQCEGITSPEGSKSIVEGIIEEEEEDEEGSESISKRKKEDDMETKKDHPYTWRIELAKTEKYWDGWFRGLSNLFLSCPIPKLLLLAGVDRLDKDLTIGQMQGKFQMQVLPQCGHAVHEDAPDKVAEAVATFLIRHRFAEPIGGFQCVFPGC
Description: PP2A (methylated and unmethylated) were eluted with 1.6 mL of Buffer A containing 350 mM NaCl. Fractions (0.2 mL each) were collected and the radioactivity in each fraction was measured using the scintillation counter (LS 6000SE, Beckman). Fractions with highest radioactivity were containing purified methylated PP2A were pooled with a total volume of 0.6 mL-0.8 mL. Purified methylated PP2A (50 nM-100 nM) was incubated with MEase (5 nM-20 nM) in 20 μl-50 μl reaction at room temperature for 30 minutes. The reaction was terminated by adding TCA (2 μl-6 μl) to a final concentration of 10%. Released [^3H]-methanol in supernatants was counted with scintillation counter (LS 6000SE, Beckman).

PP2A [4] = target: T2, PP2A; test: Phosphatase activity of PP2A using phosphorylase a as substrate; format: biochemical; conditions: un-methylated PP2A, protein substrate phosphorylase a, absence of ME and MT
Description: After the reaction, proteins were precipitated by 50% (NH4)2SO4 (final concentration) twice, and collected by centrifugation. The pellet was re-dissolved and dialyzed in a buffer containing 50 mM Tris-HCl (pH6.9) and ImM DTT for 2×2 L at 4° C. overnight. Phosphorylase a (phospho-phosphorylase b) crystallized during the dialysis. The dialysate was centrifuged 14,000 r.p.m at 4° C. for 30 minutes, the supernatant was removed and purified ^32P-labelled phosphorylase a was re-dissolved in +50% glycerol, and stored at −20° C.
To measure PP2A's phosphatase activity, PP2A (5-20 nM) was incubated with phosphorylase a (5-10 μM) at 37° C. 10% TCA (final concentration) and was added to the reaction to precipitate proteins. Supernatant that contains free ^32P-phosphate group was added into scintillation counting solution (Ecoscint, National Diagnostics), and counted by scintillation counter (LS 6000SE, Beckman).

[5] = test system: MPTP Mouse Model of Parkinson's Disease; test: MPTP-induced neurotoxicity in MPTP mouse model of Parkinson's disease (striatal tyrosine hydroxylase ELISA); format: in vivo, C57BL/6J mice; conditions: mice on control diets, relative to saline-injected mice
Source text: MPTP (1-methyl-4-phenyl-1,2,3,6-tetrahydropyridine) is routinely used as a chemical agent that induces Parkinson's disease-like neurodegeneration in cellular and animal models. Both Parkinson's Disease and MPTP-induced neurotoxicity are associated with a number of different biomarkers including reduction of tyrosine hydroxylase levels and activity. Tyrosine hydroxylase is a key enzyme in the dopamine biosynthesis pathway as it is involved in the conversion of tyrosine to […]. Tyrosine hydroxylase activity is regulated by its phosphorylation status and PP2A is known to be involved in this regulation.
C57BL/6J mice, aged 2-3 months were fed ad libitum, either standard rodent chow (Control), or rodent chow formulated with 0.1 g Compound I-63, or 0.001 g Compound I-63 per 100 g chow (0.1% and 0.001% Compound I-63, respectively); water was changed weekly. Mice were housed at 23° C., on a 12 hour light and dark cycle, with 6 mice per cage. After 2 weeks, 8-12 mice each from the Control, 0.1% Compound 1-63 and 0.001% Compound I-63 groups were injected with either saline, or 10 mg/kg MPTP i.e., four times, every 2 hours, on the same day. Mice were then maintained on their respective feeds for another week, at which point they were sacrificed by cervical dislocation and brains dissected for biochemical analyses.
Striatal tyrosine hydroxylase (TH) content was measured by ELISA as follows. Ninety-six well microliter plates (Thermo Labsystems) were incubated overnight at 4° C. with monoclonal anti-TH antibody (1:500; Calbiochem) in 8 mM sodium phosphate, 2 mM potassium phosphate, and 0.14 M sodium chloride, pH 7.4 (PBS). Wells were washed four times with PBS and then blocked for 1 hour using 5% (w/v) Carnation (Nestle) nonfat dry milk in PBS. Striatal tissue samples were homogenized by sonication in PBS-0.5% Triton X-100 (PBST) with 0.25% (w/v) SDS. […] The reaction product was measured fluorometrically within the linear range of detection (excitation:emission ratio of 530:580 nm). […] Data were expressed as percent TH levels in MPTP-treated mice relative to saline-injected mice. […]

[6] = purified methylated PP2A and MEase, read-out: ME (IC50)

Row | IC50 [1] | IC50 (PP2A [2]) | IC50 [3, 6] | IC50 (PP2A [4]) | Compound | reduction of tyrosine hydroxylase levels [5] | IC50 [3]
1 | < 10 µM | > 100 µM | < 10 µM |  | CCCCCCCCCCCCCCCCNC(=O)NC(Cc1c[nH]c2ccc(O)cc12)C(=O)O (centres unmarked) [Compound I-78, 2-(3-hexadecylureido)-3-(5-hydroxy-1H-indol-3-yl)propanoic acid] |  | 
2 | 10 to 100 µM | 10 to 100 µM | < 10 µM | 10 to 100 µM | CCCCCCCCCCCCCCCCCCNC(=O)Cc1c[nH]c2ccc(O)cc12 [Compound I-39, 2-(5-hydroxy-1H-indol-3-yl)-N-octadecylacetamide] |  | 
3 | < 10 µM | > 100 µM | < 10 µM | 10 to 100 µM | CCCCCCCCCCCCCCCCCCCC(=O)NCCc1c[nH]c2ccccc12 [Compound I-64, N-(2-(1H-indol-3-yl)ethyl) icosanamide] |  | 
4 | < 10 µM | 10 to 100 µM | < 10 µM |  | CCCCCCCCCCCCCCCCNC(=O)C(Cc1c[nH]c2ccccc12)NC(=O)OC(C)(C)C (centres unmarked) [Compound I-80, tert-butyl 1-(hexadecylamino)-3-(1H-indol-3-yl)-1-oxpopran-2-ylcarbamate] |  | 
5 | < 10 µM | > 100 µM | 10 to 100 µM |  | CCCCCCCCCCCCCCCCCCNC(=O)NC(Cc1c[nH]c2ccc(O)cc12)C(=O)O (centres unmarked) [Compound I-79, 3-(5-hydroxy-1H-indol-3-yl)-2-(3-octadecylureido)propanoic acid] |  | 
6 |  | 10 to 100 µM | > 100 µM | > 100 µM | CCCCCCCCCCCCCCCCCCC(=O)NCCc1c[nH]c2ccc(O)cc12 [Compound I-67, N-(2-(5-hydroxy-1H-indol-3-yl)ethyl)nonadecanamide] |  | 
7 | < 10 µM | 10 to 100 µM | < 10 µM | > 100 µM | CCCCCCCCCCCCCCCCCC(=O)NCCc1c[nH]c2ccc(O)cc12 [Compound I-66, N-(2-(5-hydroxy-1H-indol-3-yl)ethyl)stearamide] |  | 
8 | > 100 µM | > 100 µM | > 100 µM |  | CCCCCCCCCCCCCCCC(=O)NCCc1c[nH]c2ccc(O)cc12 [Compound I-76, N-(2-(5-hydroxy-1H-indol-3-yl)emyl)palmitamide] |  | 
9 | > 100 µM | > 100 µM | > 100 µM |  | CCCCCCCCCC(=O)NCCc1c[nH]c2ccc(O)cc12 [Compound I-77, N-(2-(5-hydroxy-1H-indol-3-yl)ethyl)decanamide] |  | 
10 | < 10 µM | > 100 µM | < 10 µM | 10 to 100 µM | CCCCCCCCCCCCCCCCCC(=O)NCCc1c[nH]c2ccccc12 [Compound I-65, N-(2-(1H-indol-3-yl)ethyl)stearamide] |  | 

More lines, now with the values behind:

Row | Compound | IC50 [1] | IC50 (PP2A [2]) | IC50 [3, 6] | IC50 (PP2A [4]) | reduction of tyrosine hydroxylase levels [5] | IC50 [3]
11 | CCCCCCC(O)CCCCCCCCCCC(=O)NCCc1c[nH]c2ccc(O)cc12 (centres unmarked) [Compound I-29, 12-hydroxy-N-[2-(5-hydroxy-1H-indol-3-yl)ethyl] octadecanamide] | 10 to 100 µM | < 10 µM | 10 to 100 µM | > 100 µM |  | 
12 | CCCCCCCCCCCCCCCCCCCC(=O)NCCc1c[nH]c2ccc(C)cc12 [Compound I-36, N-[2-(5-methyl-1H-indol-3-yl)ethyl]icosanamide] | < 10 µM | 10 to 100 µM | 10 to 100 µM | > 100 µM |  | 
13 | CCCCCCCCCCCCCCCCCCCC(=O)NCCc1c[nH]c2ccc(OC(C)=O)cc12 [Compound I-33, 3-(2-icosanamidoethyl)-1H-indol-5-yl acetate] | < 10 µM | 10 to 100 µM | < 10 µM |  |  | 
14 | CN1CC=C(c2ccccc2)CC1 [MPTP, 1-methyl-4-phenyl-1,2,3,6-tetrahydropyridine, reference compound] |  |  |  |  | 60% | 
15 | CCCCCCCCCCCCCCCCCCNC(=O)NCCc1c[nH]c2ccc(O)cc12 [Compound I-31, 1-[2-(5-hydroxy-1H-indol-3-yl)ethyl]-3-octadecylurea] | 10 to 100 µM | 10 to 100 µM | < 10 µM | 10 to 100 µM |  | 
16 | CCCCCCCCCCCCCCCCCCCC(=O)N(C)CCc1c[nH]c2ccccc12 [Compound I-38, N-[2-(1H-indol-3-yl)ethyl]-N-methylicosanamide] | > 100 µM | > 100 µM |  |  |  | > 100 µM
17 | CCCCCCCCCCCCCCCCCCCC(=O)NCCc1c[nH]c2ccc(OC(=O)CCC(=O)O)cc12 [Compound I-32, 4-{[3-(2-icosanamidoethyl)-1H-indol-5-yl]oxy}-4-oxobutanoic acid] | < 10 µM | 10 to 100 µM | < 10 µM | 10 to 100 µM |  | 
18 | CCCCCCCCCCCCCCCCCCCC(=O)NCCc1c[nH]c2ccc(F)cc12 [Compound I-35, N-[2-(5-fluoro-1H-indol-3-yl)ethyl]icosanamide] | < 10 µM | 10 to 100 µM | < 10 µM | > 100 µM |  | 
19 | CCCCCCCCCCCCCCCCNC(=O)NCCc1c[nH]c2ccc(O)cc12 [Compound I-30, 3-hexadecyl-1-[2-(5-hydroxy-1H-indol-3-yl)ethyl]urea] | 10 to 100 µM | 10 to 100 µM | < 10 µM | 10 to 100 µM |  | 
